Literature values, collected in patent US20220016058A1, “PHARMACEUTICAL COMPOSITION CONTAINING TAMSULOSIN HYDROCHLORIDE WITH EXCELLENT ACID RESISTANCE AND PREPARATION METHOD THEREFOR” (HANMI PHARM. CO., LTD., priority 2018, published 2022).
Counter-ions that a name gives are not always drawn.

In the case of `CCOc1ccccc1OCCN[C@H](C)Cc1ccc(OC)c(S(N)(=O)=O)c1` [tamsulosin hydrochloride, Tamsulosin hydrochloride], the Solubility in water is given as “dissolving a little in water”.
